US20260042755A1, “GPR6 INVERSE AGONISTS” (MapLight Therapeutics, Inc., priority 2022, published 2026)

What was measured:
[1] = target: T1, GPR6 (Homo sapiens, UniProt P46095); test: GPR6 antagonist functional cAMP assay (LANCE Ultra cAMP TR-FRET, CHO cells stably expressing GPR6); format: cell-based; conditions: procedure of Example 24
T1 construct: expressed in transfected cells; host or cells: CHO cells
Method in brief: (§1)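 We measure cAMP by TR-FRET (665 nm) in cells held in glucose-containing Krebs-Ringer buffer with BSA and a PDE inhibitor, after a 45 min, 37 °C compound incubation. IC50s derive from a four-parameter logistic fit.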

[2] = target: T2, GPR3 (Homo sapiens, UniProt P46089); test: GPR3 antagonist functional cAMP assay (LANCE Ultra cAMP TR-FRET, CHO cells stably expressing GPR3); format: cell-based; conditions: procedure of Example 24
T2 construct: expressed in transfected cells; host or cells: CHO cells
T2 sequence (P46089 whole entry, species assumed): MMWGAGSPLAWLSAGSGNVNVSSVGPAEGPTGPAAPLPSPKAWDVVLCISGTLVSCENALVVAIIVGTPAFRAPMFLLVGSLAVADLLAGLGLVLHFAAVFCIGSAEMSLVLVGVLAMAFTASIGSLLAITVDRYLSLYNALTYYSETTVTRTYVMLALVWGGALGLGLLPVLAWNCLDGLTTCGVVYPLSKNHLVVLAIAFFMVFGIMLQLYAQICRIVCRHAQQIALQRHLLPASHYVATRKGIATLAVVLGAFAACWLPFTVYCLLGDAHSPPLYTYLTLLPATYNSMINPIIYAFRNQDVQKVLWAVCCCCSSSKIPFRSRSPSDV
Method in brief: as §1

T1 sequence (P46095 whole entry): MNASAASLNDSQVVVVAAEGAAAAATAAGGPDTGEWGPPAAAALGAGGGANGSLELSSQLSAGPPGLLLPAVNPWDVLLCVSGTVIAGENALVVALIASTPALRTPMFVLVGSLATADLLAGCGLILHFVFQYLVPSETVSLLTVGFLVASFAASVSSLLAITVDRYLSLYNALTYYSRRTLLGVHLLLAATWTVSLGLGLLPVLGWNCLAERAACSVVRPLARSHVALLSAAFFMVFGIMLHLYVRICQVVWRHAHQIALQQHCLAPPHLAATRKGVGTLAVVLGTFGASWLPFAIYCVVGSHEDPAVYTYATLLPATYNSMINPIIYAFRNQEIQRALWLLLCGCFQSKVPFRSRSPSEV

| SMILES | IC50 [1] [nM] | IC50 [2] [nM] |
| --- | --- | --- |
| CC(=O)N1CCc2nc(N3CCN(Cc4c(F)cc(F)cc4F)CC3)c(-c3cnn(C)c3)nc2C1 [Compound 343, 1-[3-(1-methyl-1H-pyrazol-4-yl)-2-{4-[(2,4,6-trifluorophenyl)methyl]piperazin-1-yl}-5H,6H,7H,8H-pyrido[3,4-b]pyrazin-6-yl]ethan-1-one] | 1000 to 30000 | 1000 to 30000 |
| COc1ccc(CN2CCN(c3nc4c(nc3-c3cnn(C)c3)CN(C(C)=O)CC4)CC2)cn1 [Compound 345, 1-(2-{4-[(6-methoxypyridin-3-yl)methyl]piperazin-1-yl}-3-(1-methyl-1H-pyrazol-4-yl)-5H,6H,7H,8H-pyrido[3,4-b]pyrazin-6-yl)ethan-1-one] | 1000 to 30000 | 1000 to 30000 |
| CC(=O)N1CCc2nc(N3CCN(Cc4c(F)cccc4F)CC3)c(-c3cnn(C)c3)nc2C1 [Compound 346, 1-(2-{4-[(2,6-difluorophenyl)methyl]piperazin-1-yl}-3-(1-methyl-1H-pyrazol-4-yl)-5H,6H,7H,8H-pyrido[3,4-b]pyrazin-6-yl)ethan-1-one] | 1000 to 30000 | 100 to 1000 |
| CC(=O)N1CCc2nc(N3CCN(Cc4ccc(F)cc4C)CC3)c(-c3cnn(C)c3)nc2C1 [Compound 347, 1-(2-{4-[(4-fluoro-2-methylphenyl)methyl]piperazin-1-yl}-3-(1-methyl-1H-pyrazol-4-yl)-5H,6H,7H,8H-pyrido[3,4-b]pyrazin-6-yl)ethan-1-one] | 1000 to 30000 | 1000 to 30000 |
| CC(=O)N1CCc2nc(N3CCN(Cc4ccc(Cl)cc4F)CC3)c(-c3cnn(C)c3)nc2C1 [Compound 348, 1-(2-{4-[(4-chloro-2-fluorophenyl)methyl]piperazin-1-yl}-3-(1-methyl-1H-pyrazol-4-yl)-5H,6H,7H,8H-pyrido[3,4-b]pyrazin-6-yl)ethan-1-one] | 100 to 1000 | 1000 to 30000 |
| CC(=O)N1CCc2nc(N3CCN(Cc4cc(Cl)ccc4F)CC3)c(-c3cnn(C)c3)nc2C1 [Compound 349, 1-(2-{4-[(5-chloro-2-fluorophenyl)methyl]piperazin-1-yl}-3-(1-methyl-1H-pyrazol-4-yl)-5H,6H,7H,8H-pyrido[3,4-b]pyrazin-6-yl)ethan-1-one] | < 100 | 1000 to 30000 |
| CC(=O)N1CCc2nc(N3CCN(Cc4ccc(Cl)cc4Cl)CC3)c(-c3cnn(C)c3)nc2C1 [Compound 350, 1-(2-{4-[(2,4-dichlorophenyl)methyl]piperazin-1-yl}-3-(1-methyl-1H-pyrazol-4-yl)-5H,6H,7H,8H-pyrido[3,4-b]pyrazin-6-yl)ethan-1-one] | 1000 to 30000 | 1000 to 30000 |
| CC(=O)N1CCc2nc(N3CCN(Cc4ccccc4C#N)CC3)c(-c3cnn(C)c3)nc2C1 [Compound 351, 2-({4-[6-acetyl-3-(1-methyl-1H-pyrazol-4-yl)-5H,6H,7H,8H-pyrido[3,4-b]pyrazin-2-yl]piperazin-1-yl}methyl)benzonitrile] | 1000 to 30000 | 1000 to 30000 |
| CC(=O)N1CCc2nc(N3CCN(Cc4ccc(F)cc4F)CC3)c(-c3cnn(C)c3)nc2C1 [Compound 352, 1-(2-{4-[(2,4-difluorophenyl)methyl]piperazin-1-yl}-3-(1-methyl-1H-pyrazol-4-yl)-5H,6H,7H,8H-pyrido[3,4-b]pyrazin-6-yl)ethan-1-one] | 100 to 1000 | 1000 to 30000 |
| CC(=O)N1CCc2nc(N3CCN(Cc4cc(F)cc(F)c4)CC3)c(-c3cnn(C)c3)nc2C1 [Compound 353, 1-(2-{4-[(3,5-difluorophenyl)methyl]piperazin-1-yl}-3-(1-methyl-1H-pyrazol-4-yl)-5H,6H,7H,8H-pyrido[3,4-b]pyrazin-6-yl)ethan-1-one] | 1000 to 30000 | 1000 to 30000 |
| CC(=O)N1CCc2nc(N3CCN(Cc4c(F)ccc(F)c4F)CC3)c(-c3cnn(C)c3)nc2C1 [Compound 354, 1-[3-(1-methyl-1H-pyrazol-4-yl)-2-{4-[(2,3,6-trifluorophenyl)methyl]piperazin-1-yl}-5H,6H,7H,8H-pyrido[3,4-b]pyrazin-6-yl]ethan-1-one] | 1000 to 30000 | 1000 to 30000 |
| CC(=O)N1CCc2nc(N3CCN(Cc4ccc(F)cc4C#N)CC3)c(-c3cnn(C)c3)nc2C1 [Compound 355, 2-({4-[6-acetyl-3-(1-methyl-1H-pyrazol-4-yl)-5H,6H,7H,8H-pyrido[3,4-b]pyrazin-2-yl]piperazin-1-yl}methyl)-5-fluorobenzonitrile] | 1000 to 30000 | 1000 to 30000 |
| CC(=O)N1CCc2nc(N3CCN(Cc4ccc(C#N)cc4F)CC3)c(-c3cnn(C)c3)nc2C1 [Compound 356, 4-({4-[6-acetyl-3-(1-methyl-1H-pyrazol-4-yl)-5H,6H,7H,8H-pyrido[3,4-b]pyrazin-2-yl]piperazin-1-yl}methyl)-3-fluorobenzonitrile] | 1000 to 30000 | 1000 to 30000 |
| CC(=O)N1CCc2nc(N3CCN(Cc4cc(C#N)ccc4F)CC3)c(-c3cnn(C)c3)nc2C1 [Compound 357, 3-({4-[6-acetyl-3-(1-methyl-1H-pyrazol-4-yl)-5H,6H,7H,8H-pyrido[3,4-b]pyrazin-2-yl]piperazin-1-yl}methyl)-4-fluorobenzonitrile] | 1000 to 30000 | 1000 to 30000 |
| CC(=O)N1CCc2nc(N3CCN(Cc4ccc(OC(F)F)cc4F)CC3)c(-c3cnn(C)c3)nc2C1 [Compound 358, 1-[2-(4-{[4-(difluoromethoxy)-2-fluorophenyl]methyl}piperazin-1-yl)-3-(1-methyl-1H-pyrazol-4-yl)-5H,6H,7H,8H-pyrido[3,4-b]pyrazin-6-yl]ethan-1-one] | 1000 to 30000 | 1000 to 30000 |
| CC(=O)N1CCc2nc(N3CCN(Cc4ccc(OC(F)(F)F)cc4)CC3)c(-c3cnn(C)c3)nc2C1 [Compound 359, 1-[3-(1-methyl-1H-pyrazol-4-yl)-2-(4-{[4-(trifluoromethoxy)phenyl]methyl}piperazin-1-yl)-5H,6H,7H,8H-pyrido [3,4-b]pyrazin-6-yl]ethan-1-one] | 1000 to 30000 | 1000 to 30000 |
| CC(=O)N1CCc2nc(N3CCN(Cc4cc(Cl)c(F)cc4F)CC3)c(-c3cnn(C)c3)nc2C1 [Compound 360, 1-(2-{4-[(5-chloro-2,4-difluorophenyl)methyl]piperazin-1-yl}-3-(1-methyl-1H-pyrazol-4-yl)-5H,6H,7H,8H-pyrido[3,4-b]pyrazin-6-yl)ethan-1-one] | 100 to 1000 | 1000 to 30000 |
| COc1cc(F)c(CN2CCN(c3nc4c(nc3-c3cnn(C)c3)CN(C(C)=O)CC4)CC2)cc1Cl [Compound 361, 1-(2-{4-[(5-chloro-2-fluoro-4-methoxyphenyl)methyl]piperazin-1-yl}-3-(1-methyl-1H-pyrazol-4-yl)-5H,6H,7H,8H-pyrido[3,4-b]pyrazin-6-yl)ethan-1-one] | 1000 to 30000 | 1000 to 30000 |
| CCOc1ccc(CN2CCN(c3nc4c(nc3-c3cnn(C)c3)CN(C(C)=O)CC4)CC2)c(F)c1 [Compound 362, 1-(2-{4-[(4-ethoxy-2-fluorophenyl)methyl]piperazin-1-yl}-3-(1-methyl-1H-pyrazol-4-yl)-5H,6H,7H,8H-pyrido[3,4-b]pyrazin-6-yl)ethan-1-one] | 1000 to 30000 | 1000 to 30000 |
| CC(=O)N1CCc2nc(N3CCC(COc4ccccc4)C3)c(-c3cnn(C)c3)nc2C1 (stereo not drawn) [Compound 363, 1-[3-(1-methyl-1H-pyrazol-4-yl)-2-[3-(phenoxymethyl)pyrrolidin-1-yl]-5H,6H,7H,8H-pyrido[3,4-b]pyrazin-6-yl]ethan-1-one] | 1000 to 30000 | 1000 to 30000 |
| CC(=O)N1CCc2nc(N3CCC(COc4cc(F)ccc4F)C3)c(-c3cnn(C)c3)nc2C1 (stereo not drawn) [Compound 364, 1-(2-{3-[(2,5-difluorophenoxy)methyl]pyrrolidin-1-yl}-3-(1-methyl-1H-pyrazol-4-yl)-5H,6H,7H,8H-pyrido[3,4-b]pyrazin-6-yl)ethan-1-one] | 1000 to 30000 | 1000 to 30000 |
| CC(=O)N1CCc2nc(N3CCC(C(=O)Nc4ccc(F)cc4F)C3)c(-c3cnn(C)c3)nc2C1 (stereo not drawn) [Compound 365, 1-[6-acetyl-3-(1-methyl-1H-pyrazol-4-yl)-5H,6H,7H,8H-pyrido [3,4-b]pyrazin-2-yl]-N-(2,4-difluorophenyl)pyrrolidine-3-carboxamide] | ≥ 30000 | ≥ 30000 |
| CCn1cc(-c2nc3c(nc2N2CCC(Oc4ccc(F)cc4F)CC2)CCN(C(=O)C2COC2)C3)cn1 [Compound 366, 4-(2,4-difluorophenoxy)-1-[3-(1-ethyl-1H-pyrazol-4-yl)-6-(oxetane-3-carbonyl)-5H,6H,7H,8H-pyrido[3,4-b]pyrazin-2-yl]piperidine] | 100 to 1000 | 1000 to 30000 |
| CCn1cc(-c2nc3cnc(NC(C)=O)cc3nc2N2CCC(Oc3ccc(F)cc3F)CC2)cn1 [Compound 367, N-{2-[4-(2,4-difluorophenoxy)piperidin-1-yl]-3-(1-ethyl-1H-pyrazol-4-yl)pyrido[3,4-b]pyrazin-7-yl}acetamide] | 1000 to 30000 | 1000 to 30000 |
| Cn1cc(-c2nc3cnccc3nc2N2CCC(Cc3ccc(F)cc3F)CC2)cn1 [Compound 368, 4-[(2,4-difluorophenyl)methyl]-1-[3-(1-methyl-1H-pyrazol-4-yl)pyrido[3,4-b]pyrazin-2-yl]piperidine] | < 100 | 100 to 1000 |
| Cn1cc(-c2nc3cnc(C4CNC(=O)O4)cc3nc2N2CCC(Oc3ccc(F)cc3F)CC2)cn1 (stereo not drawn) [Compound 371, 5-(2-(4-(2,4-difluorophenoxy)piperidin-1-yl)-3-(1-methyl-1H-pyrazol-4-yl)pyrido[3,4-b]pyrazin-7-yl)oxazolidin-2-one] | 100 to 1000 | 1000 to 30000 |
| CC(=O)N1CCc2nc(N3CCC(Oc4ccc(F)cc4F)CC3)c(-c3ccc(F)c(N)n3)nc2C1 [Compound 372, 1-{3-(6-amino-5-fluoro-2-pyridyl)-2-[4-(2,4-difluorophenoxy)-1-piperidyl]-5,6,7,8-tetrahydro-1,4,6-triaza-6-naphthyl}-1-ethanone] | 100 to 1000 | 1000 to 30000 |
